7 compounds from ChEMBL document CHEMBL6127052, “Discovery of membrane-targeting amphiphilic honokiol derivatives containing an oxazolethione moiety to combat methicillin-resistant Staphylococcus aureus (MRSA) infections” (Eur J Med Chem, 2024) can be followed below.

Where only a bound is given, the exact number is not on record here.

Data set [1] deals with Staphylococcus aureus. Kind of data set: Antibacterial activity against Staphylococcus aureus ATCC 29213 by CLSI based micro-broth dilution method. In kind it is functional.
Data set [2] deals with Staphylococcus aureus. Kind of data set: Antibacterial activity against methicillin-resistant Staphylococcus aureus N315 by CLSI based micro-broth dilution method. In kind it is functional. In general terms: In broth dilution the organism is exposed to a series of concentrations in liquid medium.
The subject of data set [3] is Staphylococcus aureus. Kind of data set: Antibacterial activity against methicillin-resistant Staphylococcus aureus clinical isolate M11 by CLSI based micro-broth dilution method. In kind it is functional.
Data set [4] has as its system Staphylococcus aureus. Kind of data set: Antibacterial activity against methicillin-resistant Staphylococcus aureus clinical isolate M12 by CLSI based micro-broth dilution method. In kind it is functional.
In data set [5] the test system is Staphylococcus aureus. Kind of data set: Antibacterial activity against methicillin-resistant Staphylococcus aureus clinical isolate M13 by CLSI based micro-broth dilution method. In kind it is functional.
For data set [6], the system named is Staphylococcus aureus. Kind of data set: Antibacterial activity against methicillin-resistant Staphylococcus aureus clinical isolate M14 by CLSI based micro-broth dilution method. In kind it is functional.
The test system of data set [7] is Staphylococcus aureus. Kind of data set: Antibacterial activity against methicillin-resistant Staphylococcus aureus clinical isolate M16 by CLSI based micro-broth dilution method. In kind it is functional.
In data set [8] the test system is Staphylococcus aureus. Kind of data set: Antibacterial activity against methicillin-resistant Staphylococcus aureus clinical isolate M17 by CLSI based micro-broth dilution method. In kind it is functional.
For data set [9], the system named is Staphylococcus aureus. Kind of data set: Antibacterial activity against methicillin-resistant Staphylococcus aureus clinical isolate M20 by CLSI based micro-broth dilution method. In kind it is functional.
Data set [10] has as its system Staphylococcus aureus. Kind of data set: Antibacterial activity against methicillin-resistant Staphylococcus aureus clinical isolate M21 by CLSI based micro-broth dilution method. In kind it is functional.
The test system of data set [11] is Staphylococcus aureus. Kind of data set: Antibacterial activity against methicillin-resistant Staphylococcus aureus clinical isolate M22 by CLSI based micro-broth dilution method. In kind it is functional.
Data set [12] deals with Staphylococcus aureus. Kind of data set: Antibacterial activity against methicillin-resistant Staphylococcus aureus clinical isolate M23 by CLSI based micro-broth dilution method. In kind it is functional.
The test system of the next data set is Escherichia coli. Kind of data set: Antibacterial activity against Escherichia coli ATCC 25922 by CLSI based micro-broth dilution method. In kind it is functional.
Data set [13] is described as follows: Hemolytic activity in sheep erythrocytes incubated for 1 hr by absorbance based assay. In kind it is toxicity, cell-based, Ovis aries, Erythrocyte.
Data set [14] in a line: Selectivity index, ratio of HC50 for hemolytic activity in sheep erythrocytes to MIC for antibacterial activity against Staphylococcus aureus ATCC 29213. In kind it is toxicity, cell-based, RBC.

With `C=CCc1cc(-c2ccc(OCCC[N+](C)(C)CC(=O)NCCCC)c(CC=C)c2)c2oc(=S)n(Cc3ccc(Cl)cc3F)c2c1.[Br-]`, the MIC (in general, the lowest concentration found to suppress growth) against Staphylococcus aureus [1] is greater than 128 µg/mL; in the data set with Staphylococcus aureus [2], 128 µg/mL; against Staphylococcus aureus [3], greater than 128 µg/mL; with Staphylococcus aureus [4] it was greater than 128 µg/mL; in the data set with Staphylococcus aureus [5], greater than 128 µg/mL; in the data set on Staphylococcus aureus [6], greater than 128 µg/mL. Moreover, the minimal inhibitory concentration (MIC) in the data set with Staphylococcus aureus [7], in the data set on Staphylococcus aureus [8], in the data set with Staphylococcus aureus [9], against Staphylococcus aureus [10], in the data set on Staphylococcus aureus [11] and with Staphylococcus aureus [12] was greater than 128 µg/mL each time. This compound also showed an MIC against Escherichia coli greater than 128 µg/mL. In addition, in [13], the HC50 (commonly the concentration giving 50% haemolysis) at 1 h was greater than 160 µg/mL. The selectivity ratio in [14] was determined as 1.3.

Take `C=CCc1cc(-c2ccc(OCCC[N+](C)(C)CC(=O)NCCCC)c(CC=C)c2)c2oc(=S)n(Cc3ccc(Cl)c(F)c3)c2c1.[Br-]`: the MIC with Staphylococcus aureus [1] was 32 µg/mL; against Staphylococcus aureus [2], 32 µg/mL; against Staphylococcus aureus [3], 8 µg/mL; in the data set on Staphylococcus aureus [4], 8 µg/mL; with Staphylococcus aureus [5] it was 16 µg/mL; in the data set on Staphylococcus aureus [6] it was 16 µg/mL. Besides, the minimal inhibitory concentration (MIC) against Staphylococcus aureus [7] is 8 µg/mL; against Staphylococcus aureus [8], 128 µg/mL; in the data set with Staphylococcus aureus [9] it was 8 µg/mL; against Staphylococcus aureus [10], 8 µg/mL; against Staphylococcus aureus [11], 64 µg/mL; with Staphylococcus aureus [12], 8 µg/mL. In the data set on Escherichia coli, this compound displayed an MIC greater than 128 µg/mL. The HC50 at 1 h in data set [13] is greater than 160 µg/mL. For the same compound, in data set [14], the selectivity ratio was greater than 5.

As to `C=CCc1cc(-c2ccc(OCCC[N+](C)(C)CC(=O)NCCCC)c(CC=C)c2)c2oc(=S)n(Cc3ccc(Br)cc3Br)c2c1.[Br-]`, the minimal inhibitory concentration (MIC) with Staphylococcus aureus [1] is greater than 128 µg/mL; against Staphylococcus aureus [2], 128 µg/mL; against Staphylococcus aureus [3], greater than 128 µg/mL; against Staphylococcus aureus [4] it was greater than 128 µg/mL; in the data set with Staphylococcus aureus [5], greater than 128 µg/mL; with Staphylococcus aureus [6], greater than 128 µg/mL. Besides, the MIC in the data set with Staphylococcus aureus [7], in the data set with Staphylococcus aureus [8], in the data set on Staphylococcus aureus [9], with Staphylococcus aureus [10], in the data set on Staphylococcus aureus [11] and in the data set on Staphylococcus aureus [12] was greater than 128 µg/mL throughout. This compound also returned an MIC with Escherichia coli greater than 128 µg/mL. This compound also displayed a 50% haemolytic concentration (HC50) at 1 h in data set [13] of 65.4 µg/mL. Further, in data set [14], the selectivity ratio is 0.5.

For the compound `C=CCc1cc(-c2ccc(OCCC[N+](C)(C)CC(=O)NCCCC)c(CC=C)c2)c2oc(=S)n(Cc3ccccc3Cl)c2c1.[Br-]`, the minimum inhibitory concentration (MIC) amounted to 4 µg/mL in the data set with Staphylococcus aureus [1]; 16 µg/mL with Staphylococcus aureus [2]; 4 µg/mL in the data set on Staphylococcus aureus [3]; 4 µg/mL in the data set with Staphylococcus aureus [4]; 8 µg/mL against Staphylococcus aureus [5]; 16 µg/mL against Staphylococcus aureus [6]. Moreover, the MIC was determined as 4 µg/mL against Staphylococcus aureus [7]; 16 µg/mL against Staphylococcus aureus [8]; 8 µg/mL against Staphylococcus aureus [9]; 4 µg/mL in the data set with Staphylococcus aureus [10]; 8 µg/mL in the data set with Staphylococcus aureus [11]; 4 µg/mL with Staphylococcus aureus [12]. This compound also registered an MIC against Escherichia coli greater than 128 µg/mL. The compound further showed a 50% haemolytic concentration (HC50) at 1 h in data set [13] of 965 µg/mL. For the same compound, the selectivity ratio in data set [14] worked out at 241.

`C=CCc1cc(-c2ccc(OCCC[N+](C)(C)CC(=O)NCCCC)c(CC=C)c2)c2oc(=S)n(Cc3ccc(Cl)c(Br)c3)c2c1.[Br-]`: the minimal inhibitory concentration (MIC) is greater than 128 µg/mL in the data set on Staphylococcus aureus [1]; greater than 128 µg/mL against Staphylococcus aureus [2]; 128 µg/mL in the data set with Staphylococcus aureus [3]; greater than 128 µg/mL in the data set on Staphylococcus aureus [4]; greater than 128 µg/mL against Staphylococcus aureus [5]; greater than 128 µg/mL against Staphylococcus aureus [6]. Further, the MIC is greater than 128 µg/mL against Staphylococcus aureus [7]; 128 µg/mL against Staphylococcus aureus [8]; greater than 128 µg/mL with Staphylococcus aureus [9]; 128 µg/mL against Staphylococcus aureus [10]; 128 µg/mL with Staphylococcus aureus [11]; greater than 128 µg/mL against Staphylococcus aureus [12]. The MIC against Escherichia coli was greater than 128 µg/mL. This compound also returned a concentration for 50% haemolysis (HC50) at 1 h in data set [13] greater than 160 µg/mL. Also, in [14], the selectivity ratio was found to be 1.3.

As for `C=CCc1cc(-c2ccc(OCCC[N+](C)(C)CC(=O)NCCCC)c(CC=C)c2)c2oc(=S)n(Cc3ccccc3F)c2c1.[Br-]`, the minimum inhibitory concentration (MIC) against Staphylococcus aureus [1] is 8 µg/mL; against Staphylococcus aureus [2], 8 µg/mL; against Staphylococcus aureus [3] it was 4 µg/mL; with Staphylococcus aureus [4], 4 µg/mL; in the data set on Staphylococcus aureus [5] it was 8 µg/mL; with Staphylococcus aureus [6], 8 µg/mL. The MIC against Staphylococcus aureus [7] was 8 µg/mL; with Staphylococcus aureus [8], 8 µg/mL; in the data set on Staphylococcus aureus [9], 8 µg/mL; in the data set with Staphylococcus aureus [10], 4 µg/mL; in the data set with Staphylococcus aureus [11] it was 32 µg/mL; against Staphylococcus aureus [12] it was 8 µg/mL. In the data set on Escherichia coli, this compound showed a minimal inhibitory concentration (MIC) greater than 128 µg/mL. Further, the HC50 at 1 h in data set [13] is greater than 160 µg/mL. Further, the selectivity ratio in [14] was greater than 20.

With `C=CCc1cc(-c2ccc(OCCC[N+](C)(C)CC(=O)NCCCC)c(CC=C)c2)c2oc(=S)n(Cc3ccc(C(F)(F)F)cc3)c2c1.[Br-]`, the MIC was found to be 8 µg/mL against Staphylococcus aureus [1]; 16 µg/mL in the data set on Staphylococcus aureus [2]; 4 µg/mL in the data set on Staphylococcus aureus [3]; 4 µg/mL against Staphylococcus aureus [4]; 4 µg/mL in the data set with Staphylococcus aureus [5]; 8 µg/mL in the data set with Staphylococcus aureus [6]. Also, the MIC against Staphylococcus aureus [7] turned out to be 8 µg/mL; against Staphylococcus aureus [8], 16 µg/mL; in the data set on Staphylococcus aureus [9], 4 µg/mL; in the data set with Staphylococcus aureus [10], 8 µg/mL; in the data set on Staphylococcus aureus [11], 16 µg/mL; with Staphylococcus aureus [12] it was 8 µg/mL. The compound further gave an MIC in the data set with Escherichia coli greater than 128 µg/mL. In [13], this compound gave a 50% haemolytic concentration (HC50) at 1 h greater than 160 µg/mL. Further, the selectivity ratio in [14] was greater than 20.
